Data taken from PMC10143968, “Chamigrane-Type Sesquiterpenes from Laurencia dendroidea as Lead Compounds against Naegleria fowleri” (Marine Drugs, 2023).
Where two headings read alike, the source gives them in different places. Blank lines part the entries; values can stand above or below the compound they belong to.

Key:
N. fowleri ATCC 30808™ = assay: In vitro activity against Naegleria fowleri trophozoites (alamarBlue), ATCC 30808 strain; type: cell-based; settings: for IC50: trophozoites, alamarBlue, 48 h, 37 °C, read-out: 50% inhibitory concentration (IC50) against N. fowleri ATCC 30808™
Protocol: (§1) The in vitro experiments were carried out using two different Naegleria fowleri type strains, ATCC 30808™ and ATCC 30215™. The cells were grown in axenic conditions as previously described in other works of our group. The strains were cultured in a level 3 biological security facility at the Instituto Universitario de Enfermedades Tropicales y Salud Pública de Canarias, Universidad de La Laguna, Spain.
(§2) An alamarBlue™-based colorimetric assay was used to determine the in vitro activity of the chamigrane-type sesquiterpenes. Briefly, a known concentration of the trophozoites (2 × 10^5 cells/mL) was incubated with serial dilutions of the compounds. After, the alamarBlue™ reagent was added and the plate was placed at 37 °C for 48 h. Finally, the fluorescence was read and a non-linear regression analysis with a 95% confidence limit, in order to reckon the 50% and 90% inhibitory concentration (IC50 and IC90), was performed.
(§3) The in vitro IC50, IC90 and CC50 were determined by a non-linear regression analysis with a 95% of confidence limit using the Graphpad Prism version 9.0 (GraphPad Software; CA; USA). Three independent experiments were performed to obtain each data, which is expressed as mean ± standard deviation (SD).

N. fowleri ATCC 30215™ = assay: In vitro activity against Naegleria fowleri trophozoites (alamarBlue), ATCC 30215 strain; type: cell-based; settings: 37 °C, read-out: 50% inhibitory concentration (IC50) against N. fowleri ATCC 30215™
Protocol: as §1, §2, §3

[1] = tested on: Murine Macrophages J774.A1; assay: In vitro cytotoxicity (alamarBlue); type: cell-based; settings: mouse, 24 h
Protocol: (§4) The cytotoxicity assays were carried out in a murine macrophages cell line (ATCC TIB-67). The cells were incubated in Dulbecco’s Modified Eagle’s medium (GIBCO, Thermo Fisher Scientific, Madrid, Spain) (DMEM, w/v) supplemented with 10% (v/v) fetal bovine serum (FBS) and 10 µg/mL of gentamicin (Sigma-Aldrich, Madrid, Spain) at 37 °C in a 5% of CO2 atmosphere. The in vitro cytotoxicity of the compounds was determined following the alamarBlue ™ protocol mentioned in the previous section. Murine macrophages were incubated with serial dilutions of the evaluated molecules for 24 h at 37 °C and in presence of 5% of CO2. Finally, the 50% cytotoxic concentration (CC50) was determined after reading the fluorescence. The in vitro IC50, IC90 and CC50 were determined by a non-linear regression analysis with a 95% of confidence limit using the Graphpad Prism version 9.0 (GraphPad Software; CA; USA). Three independent experiments were performed to obtain each data, which is expressed as mean ± standard deviation (SD).

[2] = tested on: Naegleria fowleri cysts (ATCC 30808™); assay: In vitro cysticidal activity (alamarBlue fluorometric assay); type: cell-based; settings: ATCC30808, ATCC 30808™ cysts, 24 h incubation then 72 h with alamarBlue, read-out: IC50 against N. fowleri cysts (cysticidal activity)
Protocol: For the in vitro cysticidal activity assays, the Naegleria fowleri ATCC 30808™ strain was used. Cysts were obtained transferring the bactocasitone grown trophozoites to the MYAS medium and keeping them for ten days in slight agitation. The in vitro activity of the compounds against the Naegleria fowleri cyst was determined using an alamarBlue™-based fluorometric assay as previously described. Mature cysts were incubated with serial dilutions of the evaluated compound for 24 h at 37 °C. After that, the medium was removed and fresh bactocasitone was added. Later, the alamarBlue® reagent was placed and the plates were incubated for 72 additional hours at 37 °C. Finally, the EnSpire Multimode Plate Reader (PerkinElmer, Madrid, Spain) was used to read the fluorescence and calculate the IC50 as described in Section 4.3. The in vitro IC50, IC90 and CC50 were determined by a non-linear regression analysis with a 95% of confidence limit using the Graphpad Prism version 9.0 (GraphPad Software; CA; USA). Three independent experiments were performed to obtain each data, which is expressed as mean ± standard deviation (SD).

[3] = tested on: Naegleria fowleri ATCC 30808™ trophozoites; assay: Chromatin condensation (Hoechst 33342/PI double stain); type: cell-based; settings: IC90 (2.45 µM), 24 h
Protocol: (§5) For the determination of the type of cell death that induces (+)-elatol (1), different commercial kits were used. […] Next, the reagents corresponding to each kit were added, allowing the appearance of programmed cell death (PCD) processes in the cells to be observed. Moreover, the percentage of stained cells was determined using the EVOS™ M5000 Software (Invitrogen by Thermo Fisher Scientific). All experiments were performed in triplicate and five different images (×40) were processed each time.
The condensed chromatin was detected with the double-stain apoptosis detection kit (Hoechst 33342/PI) (Life Technologies, Madrid, Spain). The Hoechst 33342 stain emits blue fluorescence in the presence of condensed chromatin while the Propidium iodide (PI) is able to travel through the membrane of dead cells and emit a red fluorescence.
(§6) The percentage of stained cells determination in the PCD assays was calculated using the EVOS™ M5000 Software (Invitrogen by Thermo Fisher Scientific). […] The bar graph of the mitochondrial membrane potential evaluation illustrates the mean fluorescence and SD emitted by the aggregate and monomer forms of the JC-1 stain. […] Moreover, in all the PCD assays, a one-way analysis of variance (ANOVA) was assessed to study the differences between the treated and negative control trophozoites. ** p < 0.01; *** p < 0.001; **** p < 0.0001 significant differences.

[4] = tested on: Naegleria fowleri (ATCC 30808™) trophozoites; type: cell-based; settings: not told
Protocol: as §5
The permeability of the plasma membrane was assessed with the SYTOX Green® stain. The plasma membrane is impermeable to the dye in healthy conditions. However, when the permeability of the plasma membrane is compromised, the SYTOX Green® enters the cells, binds the DNA and emits an intense green fluorescence at 523 nm wavelength.
as §6

[5] = tested on: Naegleria fowleri ATCC 30808™ trophozoites; assay: Reactive oxygen species production (CellROX Deep Red); type: cell-based; settings: IC90 (2.45 µM), 24 h
Protocol: as §5
To determine the oxidative damage, the CellROX Deep Red fluorescent assay (Thermo Fisher Scientific) was used. […] These reagents produce red fluorescence with maximum absorption/emission peaks of ~644/665 nm when facing the reactive oxygen species (ROS) in the cytoplasm.
as §6

[6] = tested on: Naegleria fowleri ATCC 30808™ trophozoites; assay: Mitochondrial membrane potential (JC-1); type: cell-based; settings: IC90 (2.45 µM), 24 h
Protocol: as §5
For determining mitochondrial damage in treated amoebae, two different assays were performed. Firstly, to measure the collapse of the transmembrane electrochemical gradient, a lipophilic cationic dye called JC-1 (Cayman Chemicals Vitro SA, Madrid, Spain) was used. […] When the membrane potential is high, the fluorophore will be found in the mitochondria in the j-aggregates form emitting red fluorescence at 595 nm. On the other hand, when membrane depolarization occurs, the reagent disperses and remains in its monomeric form showing green fluorescence at 535 nm.
The percentage of stained cells determination in the PCD assays was calculated using the EVOS™ M5000 Software (Invitrogen by Thermo Fisher Scientific). […] The bar graph of the mitochondrial membrane potential evaluation illustrates the mean fluorescence and SD emitted by the aggregate and monomer forms of the JC-1 stain. […]

[7] = tested on: Naegleria fowleri ATCC 30808™ trophozoites; assay: ATP production (CellTiter-Glo); type: cell-based; settings: IC90 (2.45 µM), 24 h
Protocol: as §5
Afterwards, to validate the mitochondrial damage, the levels of ATP produced in the amoebae treated with the IC90 of the compound were analyzed using the CellTiter-Glo® Luminescent Cell Viability Assay reagent (Promega Biotech Ibérica S.L, Madrid, Spain) following manufacturer’s instructions.

[8] = In vitro cytotoxicity (alamarBlue); type: cell-based, murine; settings: mouse
Protocol: as §4

[9] = Naegleria fowleri, ATCC30808, 48 h
[10] = Naegleria fowleri, ATCC30215, 48 h
[11] = J774.A1 murine macrophage cell line (ATCC TIB-67), alamarBlue, 24 h, 37 °C, read-out: 50% cytotoxic concentration (CC50) against murine macrophages J774.A1

- IC90 (N. fowleri ATCC 30808™; Naegleria fowleri, ATCC30808, ATCC 30808™ strain): 2.45 µM
- IC50 (N. fowleri ATCC 30808™): 1.08 ± 0.09 µM
- IC50 (N. fowleri ATCC 30215™; 48 h): 1.14 ± 0.09 µM
Structure (SMILES): C=C1CC(O)C(Br)C(C)(C)C12CCC(C)=C(Cl)C2 (single isomer, unassigned; (+)) [(+)-Elatol (1), (+)-elatol]
- CC50 [1]: 61.5 ± 13 µM
- IC50 [2]: 1.14 µM
- chromatin condensation (Hoechst 33342 fluorescence) [3]: intense blue fluorescence
- propidium iodide staining (red fluorescence) [3]: absence of the red fluorescence
- plasma membrane permeability (SYTOX Green fluorescence) [4]: plasma membrane is damaged in treated cells
- ROS generation (CellROX Deep Red) [5]: induces the over-generation of ROS
- mitochondrial membrane potential (JC-1) [6]: depolymerization of the mitochondrial membrane potential
- reduction of ATP production compared to untreated cells [7]: 82.11%

- IC50 (N. fowleri ATCC 30808™): 36.8 ± 8.03 µM
- IC50 (N. fowleri ATCC 30215™; 48 h): 38 ± 7.61 µM
Structure (SMILES): C=C1CC(O)C(Br)C(C)(C)C12CCC(C)=C(Cl)C2 (single isomer, unassigned; (-)) [(−)-Elatol (2), (−)-elatol]
- fold less potent than (+)-elatol (1) (N. fowleri ATCC 30808™; IC50 ratio against N. fowleri trophozoites): 34 fold
- CC50 [1]: > 150 µM

- IC50 (N. fowleri ATCC 30808™; [9]): 22.5 ± 5.81 µM
- IC50 (N. fowleri ATCC 30215™; [10]): 9.71 ± 0.82 µM
Structure (SMILES): C=C1CC(O)C(Br)C(C)(C)C12CCC(C)(Cl)C(Br)C2 (single isomer, unassigned; (-)) [(−)-Rogiolol (5), (−)-rogiolol]
- CC50 at 24 h ([8]; 50% cytotoxic concentration (CC50) against murine macrophages J774.A1): 142 ± 17.2 µM

- IC50 (N. fowleri ATCC 30808™; [9]): > 98.1 µM
Structure (SMILES): C=C1C[C@H](O)CC(C)(C)[C@@]12CCC(C)=C(Cl)C2 [(+)-Debromoelatol (3), (+)-debromoelatol]

- IC50 (N. fowleri ATCC 30808™; [9]): > 83.5 µM
Structure (SMILES): C=C1C[C@H](O)[C@H](Br)C(C)(C)[C@]12CC=C(C)CC2 [(+)-Dechloroelatol (4), (+)-dechloroelatol]

- IC50 (N. fowleri ATCC 30808™; [9]): > 71.1 µM
Structure (SMILES): C=C1C[C@@H](O)[C@@H](Br)C(C)(C)[C@]12CC[C@@](C)(O)[C@@H](Cl)C2 [(+)-Dendroidiol (7), (−)-dendroidiol]

- IC50 (N. fowleri ATCC 30808™; [9]): > 62.7 µM
Structure (SMILES): C=C1CC[C@@H](Br)C(C)(C)[C@@]12CC[C@@](C)(Br)[C@H](Cl)C2 [(+)-Obtusane (10), (+)-obtusane]

- IC50 (N. fowleri ATCC 30808™; [9]): > 60.3 µM
Structure (SMILES): C=C1C[C@@H](O)[C@@H](Br)C(C)(C)[C@]12CC[C@](C)(Br)[C@@H](Cl)C2 [(+)-Obtusol (9), (+)-obtusol]

- IC50 (N. fowleri ATCC 30808™; [9]): > 62.7 µM
Structure (SMILES): CC1=CC[C@@H](Br)C(C)(C)[C@]12CC[C@](C)(Br)[C@@H](Cl)C2 [(−)-3,10-dibromo-4-chloro-alpha-chamigrane]

- IC50 (N. fowleri ATCC 30808™; [9]): > 60.3 µM
Structure (SMILES): C=C1C[C@@H](O)[C@@H](Br)C(C)(C)[C@]12CC[C@@](C)(Cl)[C@H](Br)C2 [(−)-Cartilagineol (8), (−)-cartilagenol]

- IC50 (N. fowleri ATCC 30808™; [9]): 0.12 ± 0.03 µM
Structure (SMILES): C[C@@H]1[C@H](O)[C@@H](C)/C=C/C=C/C=C/C=C/C=C/C=C/C=C/[C@H](O[C@@H]2O[C@H](C)[C@@H](O)[C@H](N)[C@@H]2O)C[C@@H]2O[C@](O)(C[C@@H](O)C[C@@H](O)[C@H](O)CC[C@@H](O)C[C@@H](O)CC(=O)O[C@H]1C)C[C@H](O)[C@H]2C(=O)O [Amphotericin B, reference compound]
- CC50 at 24 h [8, 11]: > 200 µM

- IC50 (N. fowleri ATCC 30808™; [9]): 38.7 ± 4.23 µM
- IC50 (N. fowleri ATCC 30215™; [10]): 81.6 ± 7.23 µM
Structure (SMILES): CCCCCCCCCCCCCCCCOP(=O)([O-])OCC[N+](C)(C)C [Miltefosine, reference compound]
- CC50 at 24 h [8, 11]: 128 ± 8.85 µM
